Measured values from PMC11348189, “Disorder-to-order active site capping regulates the rate-limiting step of the inositol pathway” (Proceedings of the National Academy of Sciences of the …, 2024).

Experiments:
[1] = target: T1, endogenous fungal MIPS (myo-inositol-1-phosphate synthase) (Thermochaetoides thermophila, UniProt G0SDP4); assay: cryo-EM structure ([…] Å); assay type: binding; conditions: endogenously bound in all four active sites; native SEC fraction, pH 7.4; monovalent cation (probably K+) near NAD
T1 construct: gene CTHT_0052500; native full-length enzyme in SEC fraction of T. thermophila cell extract, no tag; 240 kDa homotetramer; residues 40-552 resolved
T1 sequence (G0SDP4 1-552): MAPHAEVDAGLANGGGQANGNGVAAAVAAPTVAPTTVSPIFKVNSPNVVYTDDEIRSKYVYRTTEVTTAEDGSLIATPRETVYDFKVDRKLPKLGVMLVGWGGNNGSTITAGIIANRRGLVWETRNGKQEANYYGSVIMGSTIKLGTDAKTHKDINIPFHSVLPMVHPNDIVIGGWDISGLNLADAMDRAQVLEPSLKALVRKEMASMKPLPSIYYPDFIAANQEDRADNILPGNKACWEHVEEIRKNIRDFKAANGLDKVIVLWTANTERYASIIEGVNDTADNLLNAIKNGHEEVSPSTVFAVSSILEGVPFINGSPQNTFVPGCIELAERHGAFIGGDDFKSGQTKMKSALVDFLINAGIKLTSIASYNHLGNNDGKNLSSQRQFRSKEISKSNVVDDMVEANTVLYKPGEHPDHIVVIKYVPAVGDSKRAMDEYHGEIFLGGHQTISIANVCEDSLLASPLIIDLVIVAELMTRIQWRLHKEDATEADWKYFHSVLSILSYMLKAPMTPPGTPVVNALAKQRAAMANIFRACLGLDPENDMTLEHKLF

[2] = target: T1, endogenous fungal MIPS (myo-inositol-1-phosphate synthase); assay: phosphate release after periodate oxidation, molybdate, […] nm; assay type: biochemical; conditions: SEC fraction of cell extract; 5 mM G6P, 0.8 mM NAD+, 14 mM ammonium acetate, 2 mM DTT, 100 mM Tris-acetate pH 8, 37 °C

SMILES | cryo-EM structure (2.48 Å) [1] | phosphate release after periodate oxidation, molybdate, 820 nm [2]
NC(=O)c1ccc[n+]([C@@H]2O[C@H](COP(=O)(O)OP(=O)(O)OC[C@H]3O[C@@H](n4cnc5c(N)ncnc54)[C@H](O)[C@@H]3O)[C@@H](O)[C@H]2O)c1 [NAD^+] | allowing for the unambiguous placement of the cofactor NAD (Fig. 2A) | 
O=P(O)(O)OC[C@H]1OC(O)[C@H](O)[C@@H](O)[C@@H]1O (some centres unmarked) [glucose-6-phosphate] |  | probe the identified fractions for their capacity to convert G6P to IMP
